The values below come from patent publication US10611740B2, “Aryl dihydro-2H-benzo[b][1,4]oxazine sulfonamide and related compounds for use as agonists of RORγ and the treatment of disease” (Lycera Corporation, priority 2015, dated 2020).

One assay concerns the target T1, Gal4-RORγ-LBD (Homo sapiens, UniProt P51449).
T1 construct: expressed in transfected cells; host or cells: HEK-293 cells (pcDNA3.1neo plasmid)
T1 sequence (P51449 269-508 limits assumed): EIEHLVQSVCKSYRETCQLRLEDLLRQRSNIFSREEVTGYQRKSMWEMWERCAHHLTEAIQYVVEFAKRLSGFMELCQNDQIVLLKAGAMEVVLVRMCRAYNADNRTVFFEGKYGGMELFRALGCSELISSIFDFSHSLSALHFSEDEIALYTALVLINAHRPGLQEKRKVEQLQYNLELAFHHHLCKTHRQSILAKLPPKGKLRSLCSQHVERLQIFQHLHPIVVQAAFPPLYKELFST
Nature of the assay: Gal4-RORγ Luciferase Reporter Assay in HEK-293T Cells. The conditions noted are these: HEK-293 cells, 2 μM ursolic acid. The class given is cell-based. Put shortly: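 In transfected HEK-293 cells (Gal4-RORγ-LBD, Gal4-luciferase), test agents with 2 μM ursolic acid were incubated overnight at 37 °C before luminescent detection. Values are relative to the ursolic-acid-free, compound-free signal (100).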
Background: Reporter assays use an easily measured gene product as a stand-in for the process of interest.

Another assay addresses T2, RORγ-LBD (Homo sapiens, UniProt P51449).
T2 construct: made in house; host or cells: SF9 cells (baculovirus)
T2 sequence (P51449 269-508 limits assumed): T1 sequence (P51449 269-508 limits assumed)
Nature of the assay: RORγ-Ligand Binding Domain (LBD) TR-FRET Assay.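 For TR-FRET Assay Max Response: 665/615 nm ratio relative to signal without ursolic acid or compound set at 100.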 The class given is biochemical. In outline:
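SF9 lysate containing His-RORγ-LBD, ~3 nM final; coactivator peptide biotin-SRC1 LXXLL, 200 nM final; ursolic acid 2 μM final; DMSO 1% final; Tris pH 7.0 buffer with KCl, EDTA, DTT, BSA. TR-FRET format.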
(TR-FRET usually uses a lanthanide donor and a delayed reading to cut background.)

The EC50 is the concentration at which the effect is half-maximal.

Regarding `O=S(=O)(c1cccc(C(F)(F)F)c1)N1C[C@H](CC2(CO)COC2)Oc2ccc(-c3cc(F)cc(F)c3Cl)cc21` [Compound 51A, (S)-(3-((6-(2-chloro-3,5-difluoro-phenyl)-4-((3-(trifluoromethyl)-phenyl)sulfonyl)-3,4-dihydro-2H-benzo[b][1,4]oxazin-2-yl)methyl)oxetan-3-yl)methanol], at Gal4-RORγ-LBD, the EC50 is below 500 nM and the “Gal4-RORγ Assay Max Response” value is listed as “** (The symbol “**” indicates a value in the range of greater than 90 to 150)”. Further, at RORγ-LBD, the EC50 was below 500 nM and the “TR-FRET Assay Max Response” value is “** (The symbol “**” indicates a value in the range of greater than 90 to 150)”.

On to `O=C(O)C1(C[C@H]2CN(S(=O)(=O)c3cccc(C(F)(F)F)c3)c3cc(-c4cc(F)cc(F)c4Cl)ccc3O2)COC1` [Compound 51B, (S)-3-((6-(2-chloro-3,5-difluoro-phenyl)-4-((3-(trifluoromethyl)-phenyl)sulfonyl)-3,4-dihydro-2H-benzo[b][1,4]oxazin-2-yl)methyl)oxetane-3-carboxylic acid], for which, at Gal4-RORγ-LBD, the EC50 was below 500 nM and the “Gal4-RORγ Assay Max Response” value is listed as “** (The symbol “**” indicates a value in the range of greater than 90 to 150)”. Moreover, at RORγ-LBD, the EC50 is below 500 nM and the “TR-FRET Assay Max Response” value is given as “*** (The symbol “***” indicates a value in the range of greater than 150 to 200)”.

`COc1cc(F)cc(-c2ccc3c(c2)N(S(=O)(=O)c2cccc(C(F)(F)F)c2)C[C@H](CC2(C(=O)O)COC2)O3)c1F` [Compound 51C, (S)-3-((6-(2,5-difluoro-3-methoxyphenyl)-4-((3-(trifluoromethyl)phenyl)sulfonyl)-3,4-dihydro-2H-benzo[b][1,4]oxazin-2-yl)methyl)oxetane-3-carboxylic acid]: on Gal4-RORγ-LBD, the EC50 is below 500 nM and the “Gal4-RORγ Assay Max Response” value is given as “** (The symbol “**” indicates a value in the range of greater than 90 to 150)”. On RORγ-LBD, the half-maximal effective concentration (EC50) was below 500 nM and the “TR-FRET Assay Max Response” value is given as “** (The symbol “**” indicates a value in the range of greater than 90 to 150)”.

Take `O=C(O)C1(C[C@H]2CN(S(=O)(=O)c3cccc(C4CC4)c3)c3cc(-c4cc(F)ccc4F)ccc3O2)COC1` [Compound 51E, (S)-3-((4-((3-cyclopropylphenyl)sulfonyl)-6-(2,5-difluorophenyl)-3,4-dihydro-2H-benzo[b][1,4]oxazin-2-yl)methyl)oxetane-3-carboxylic acid]: at Gal4-RORγ-LBD, the 50% effective concentration (EC50) was above 10000 nM and the “Gal4-RORγ Assay Max Response” value was “*** (The symbol “***” indicates a value in the range of greater than 150 to 200)”. At RORγ-LBD, the EC50 was below 500 nM and the “TR-FRET Assay Max Response” value is reported as “*** (The symbol “***” indicates a value in the range of greater than 150 to 200)”.

Consider `O=C(O)C1(C[C@H]2CN(S(=O)(=O)c3cccc(C4CC4)c3)c3cc(-c4cc(F)cc(OC(F)F)c4)ccc3O2)COC1` [Compound 51F, (S)-3-((4-((3-cyclopropyl-phenyl)sulfonyl)-6-(3-(difluoro-methoxy)-5-fluorophenyl)-3,4-dihydro-2H-benzo[b][1,4]oxazin-2-yl)methyl)oxetane-3-carboxylic acid], for which, at Gal4-RORγ-LBD, the EC50 is below 500 nM and the “Gal4-RORγ Assay Max Response” value is given as “** (The symbol “**” indicates a value in the range of greater than 90 to 150)”. Also, at RORγ-LBD, the concentration giving a half-maximal response (EC50) is below 500 nM and the “TR-FRET Assay Max Response” value is “*** (The symbol “***” indicates a value in the range of greater than 150 to 200)”.

Consider `CC(=O)NC1(C[C@H]2CN(S(=O)(=O)c3cccc(C(F)(F)F)c3)c3cc(-c4cccc(C(F)(F)F)n4)ccc3O2)COC1` [Compound 51M, (S)-N-(3-((4-((3-(trifluoromethyl)-phenyl)sulfonyl)-6-(6-(trifluoromethyl)pyridin-2-yl)-3,4-dihydro-2H-benzo[b][1,4]oxazin-2-yl)methyl)oxetan-3-yl)acetamide], for which, on Gal4-RORγ-LBD, the EC50 is below 500 nM and the “Gal4-RORγ Assay Max Response” value was “** (The symbol “**” indicates a value in the range of greater than 90 to 150)”. Moreover, on RORγ-LBD, the EC50 is below 500 nM and the “TR-FRET Assay Max Response” value was “*** (The symbol “***” indicates a value in the range of greater than 150 to 200)”.

For `CC(C)(C[C@@H]1CN(S(=O)(=O)c2cccc(C(F)(F)F)c2)c2cc(-c3cc(F)ccc3F)ccc2O1)C(=O)O` [Compound 52, (R)-3-(6-(2,5-difluorophenyl)-4-((3-(trifluoromethyl)phenyl)sulfonyl)-3,4-dihydro-2H-benzo[b][1,4]oxazin-2-yl)-2,2-dimethylpropanoic Acid], at Gal4-RORγ-LBD, the EC50 fell in the range of 500 to 5000 nM and the “Gal4-RORγ Assay Max Response” value is “* (The symbol “*” indicates a value in the range of 25 to 90)”. For the same compound, on RORγ-LBD, the EC50 is below 500 nM and the “TR-FRET Assay Max Response” value is given as “** (The symbol “**” indicates a value in the range of greater than 90 to 150)”.

For `O=C(O)[C@@H]1C[C@H]1[C@H]1CN(S(=O)(=O)c2cccc(C(F)(F)F)c2)c2cc(-c3cc(F)ccc3F)ccc2O1` [Compound 53, (1R,2R)-2-((S)-6-(2,5-difluorophenyl)-4-((3-(trifluoromethyl)phenyl)sulfonyl)-3,4-dihydro-2H-benzo[b][1,4]oxazin-2-yl)cyclopropane-1-carboxylic acid], on Gal4-RORγ-LBD, the EC50 is below 500 nM and the “Gal4-RORγ Assay Max Response” value is on record as “** (The symbol “**” indicates a value in the range of greater than 90 to 150)”. At RORγ-LBD, the EC50 was below 500 nM and the “TR-FRET Assay Max Response” value was “** (The symbol “**” indicates a value in the range of greater than 90 to 150)”.

For `O=C(O)[C@H]1C[C@@H]1[C@H]1CN(S(=O)(=O)c2cccc(C(F)(F)F)c2)c2cc(-c3cc(F)ccc3F)ccc2O1` [Compound 54, (1S,2S)-2-((S)-6-(2,5-difluorophenyl)-4-((3-(trifluoromethyl)phenyl)sulfonyl)-3,4-dihydro-2H-benzo[b][1,4]oxazin-2-yl)cyclopropane-1-carboxylic acid], on Gal4-RORγ-LBD, the EC50 was in the range of 500 to 5000 nM and the “Gal4-RORγ Assay Max Response” value is recorded as “** (The symbol “**” indicates a value in the range of greater than 90 to 150)”. On RORγ-LBD, the EC50 was below 500 nM and the “TR-FRET Assay Max Response” value is “** (The symbol “**” indicates a value in the range of greater than 90 to 150)”.

With `O=C(O)[C@@H]1C[C@H]1[C@H]1CN(S(=O)(=O)c2cccc(C(F)(F)F)c2)c2cc(-c3cc(F)cc(OC(F)F)c3)ccc2O1` [Compound 55, (1R,2R)-2-((S)-6-(3-(difluoromethoxy)-5-fluorophenyl)-4-((3-(trifluoromethyl)phenyl)sulfonyl)-3,4-dihydro-2H-benzo[b][1,4]oxazin-2-yl)cyclopropane-1-carboxylic acid], at Gal4-RORγ-LBD, the EC50 is below 500 nM and the “Gal4-RORγ Assay Max Response” value is given as “* (The symbol “*” indicates a value in the range of 25 to 90)”. Further, on RORγ-LBD, the EC50 was below 500 nM and the “TR-FRET Assay Max Response” value was “** (The symbol “**” indicates a value in the range of greater than 90 to 150)”.

In the case of `O=C(O)[C@H]1C[C@@H]1[C@H]1CN(S(=O)(=O)c2cccc(C(F)(F)F)c2)c2cc(-c3cc(F)cc(OC(F)F)c3)ccc2O1` [Compound 56, (1S,2S)-2-((S)-6-(3-(difluoromethoxy)-5-fluorophenyl)-4-((3-(trifluoromethyl)phenyl)sulfonyl)-3,4-dihydro-2H-benzo[b][1,4]oxazin-2-yl)cyclopropane-1-carboxylic acid], at Gal4-RORγ-LBD, the EC50 fell in the range of 500 to 5000 nM and the “Gal4-RORγ Assay Max Response” value was “** (The symbol “**” indicates a value in the range of greater than 90 to 150)”. Besides, at RORγ-LBD, the EC50 is below 500 nM and the “TR-FRET Assay Max Response” value is reported as “** (The symbol “**” indicates a value in the range of greater than 90 to 150)”.

Turning to `O=C(O)C1(C[C@H]2CN(S(=O)(=O)c3cccc(C(F)(F)F)c3)c3cc(-c4cc(F)cc(OC(F)F)c4)ccc3O2)CCOCC1` [Compound 58, (S)-4-((6-(3-(difluoromethoxy)-5-fluorophenyl)-4-((3-(trifluoromethyl)phenyl)sulfonyl)-3,4-dihydro-2H-benzo[b][1,4]oxazin-2-yl)methyl)tetrahydro-2H-pyran-4-carboxylic acid], on Gal4-RORγ-LBD, the EC50 is below 500 nM and the “Gal4-RORγ Assay Max Response” value was “** (The symbol “**” indicates a value in the range of greater than 90 to 150)”. Also, at RORγ-LBD, the EC50 was below 500 nM and the “TR-FRET Assay Max Response” value was “*** (The symbol “***” indicates a value in the range of greater than 150 to 200)”.

As for `O=C(O)[C@H]1C[C@H](C[C@H]2CN(S(=O)(=O)c3cccc(C(F)(F)F)c3)c3cc(-c4cc(F)cc(OC(F)F)c4)ccc3O2)C1` [Compound 59, (1S,3r)-3-(((S)-6-(3-(difluoromethoxy)-5-fluorophenyl)-4-((3-(trifluoromethyl)phenyl)sulfonyl)-3,4-dihydro-2H-benzo[b][1,4]oxazin-2-yl)methyl)cyclobutane-1-carboxylic acid], on Gal4-RORγ-LBD, the concentration for a half-maximal effect (EC50) is below 500 nM and the “Gal4-RORγ Assay Max Response” value was “** (The symbol “**” indicates a value in the range of greater than 90 to 150)”. Also, on RORγ-LBD, the EC50 is below 500 nM and the “TR-FRET Assay Max Response” value is “*** (The symbol “***” indicates a value in the range of greater than 150 to 200)”.
